The values that follow come from article PMC5029699, “Landscape of activating cancer mutations in FGFR kinases and their differential responses to inhibitors in clinical use” (Oncotarget, 2016).

The test system of test [1] is NIH3T3 cells expressing FGFR3 K650E. The conditions noted are these: K650E NIH3T3 cells vs FGFR3TACC3-fusion cells, in words. Here is the method:
(§1) For the cell viability assay in the presence of FGFR inhibitors, NIH3T3 cells transfected with the stated FGFR3 variants were plated in 96-well plates, 1000 cells per well. Twenty-four hours later the cells were treated with various concentrations of kinase inhibitor. Forty-eight hours later, fresh inhibitor was added and the cells incubated for 72 hours. Cell viability was measured through the addition of CellTiter-Glo (Promega) and luminenscence measured with a standard luminometer plate reader. Data were normalised and fitted to a log(inhibitor) vs. response curve (three parameters) with GraphPad Prism.

In test [2] the test system is NIH3T3 cells expressing FGFR3 N540K. The note with it: N540K NIH3T3 cells vs FGFR3TACC3-fusion cells, in words. As to the method:
as §1

In test [3] the test system is NIH3T3 cells expressing FGFR3TACC3-fusion (WT KD). The conditions noted are these: AZD4547 compared with JNJ42756493. Here is the method:
as §1

Test [4] relates to cancer cell lines with the FGFR3 S249C substitution. The conditions noted are these: some cancer cell lines with FGFR3 S249C; cited from earlier work.
Test [5] has as its system cell line with introduced FGFR3 V555M mutation. The arrangement: method as in PMID 26097890. The note with it: cell line originally responding to both drugs; cited from earlier work.
The subject of test [6] is JHUEM-2 cancer cell line, FGFR2 mutation corresponding to N540K. The arrangement: method as in PMID 23908597. The note with it: cited from earlier work.

As for AZD4547, the “effect of variant on inhibitor efficacy in cells” value in test [1] and in test [2] was “reduce efficacy” each time. Moreover, in test [3], the “difference between AZD4547 and JNJ42756493 cellular IC50s” value is recorded as 2-3 fold. Moreover, in test [4], the “viability and proliferation of cancer cell lines” value is given as “compromised”.
Take `CCN(CC)CCCCNc1ncc2cc(-c3cc(OC)cc(OC)c3)c(NC(=O)NC(C)(C)C)nc2n1` [PD173074]: the “drug effect following introduction of FGFR3 V555M mutation” value in test [5] was “loss of efficacy”. Moreover, the “drug response due to mutation corresponding to N540K in FGFR2” value in test [6] is listed as “reduced sensitivity”.
